Results from patent US9492471B2, “Methods of treating a disease or disorder associated with Bruton'S Tyrosine Kinase” (Celgene Avilomics Research, Inc., priority 2013, dated 2016).
Like-named read-outs stand apart in the source and are kept apart here.

Tests used:
Test in all cases: HotSpot kinase profiling
Format in all cases: biochemical
CDK3/cyclin E = target: T1, CDK3/cyclin E (Homo sapiens, UniProt Q00526)
T1 construct: purchased Reaction Biology Corp
Method in brief: (§1)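 Activity is measured by radiolabel transfer captured on P81 filters after a 2 h room-temperature reaction of kinase, substrate and cofactors. Values are percent inhibition against DMSO.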

DRAK1/STK17A = target: T2, DRAK1/STK17A (Homo sapiens, UniProt Q9UEE5)
T2 construct: purchased Reaction Biology Corp
T2 sequence (Q9UEE5 1-414): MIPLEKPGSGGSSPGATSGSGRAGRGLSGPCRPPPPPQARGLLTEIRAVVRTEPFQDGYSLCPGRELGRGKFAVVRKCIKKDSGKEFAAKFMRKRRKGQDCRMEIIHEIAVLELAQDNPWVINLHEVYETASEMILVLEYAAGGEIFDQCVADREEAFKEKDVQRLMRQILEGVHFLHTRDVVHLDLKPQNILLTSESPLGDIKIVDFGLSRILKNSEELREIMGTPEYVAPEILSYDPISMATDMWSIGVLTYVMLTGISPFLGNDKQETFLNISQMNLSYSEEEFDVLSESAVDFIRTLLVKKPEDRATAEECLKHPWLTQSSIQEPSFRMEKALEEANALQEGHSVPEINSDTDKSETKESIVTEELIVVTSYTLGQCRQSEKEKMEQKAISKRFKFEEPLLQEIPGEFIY
Method in brief: as §1

HPK1/MAP4K1 = target: T3, HPK1/MAP4K1 (Homo sapiens, UniProt Q92918)
T3 construct: purchased Reaction Biology Corp
Method in brief: as §1

JAK1 = target: T4, JAK1 (Homo sapiens, UniProt P23458)
T4 construct: purchased Reaction Biology Corp
Method in brief: as §1

JNK1 = target: T5, JNK1 (Homo sapiens, UniProt P45983)
T5 construct: purchased Reaction Biology Corp
Method in brief: as §1

NEK7 = target: T6, NEK7 (Homo sapiens, UniProt Q8TDX7)
T6 construct: purchased Reaction Biology Corp
Method in brief: as §1

PIM1 = target: T7, PIM1 (Homo sapiens, UniProt P11309)
T7 construct: purchased Reaction Biology Corp
Method in brief: as §1

SRMS = target: T8, SRMS (Homo sapiens, UniProt Q9H3Y6)
T8 construct: purchased Reaction Biology Corp
Method in brief: as §1

TBK1 = target: T9, TBK1 (Homo sapiens, UniProt Q9UHD2)
T9 construct: purchased Reaction Biology Corp
T9 sequence (Q9UHD2 1-729): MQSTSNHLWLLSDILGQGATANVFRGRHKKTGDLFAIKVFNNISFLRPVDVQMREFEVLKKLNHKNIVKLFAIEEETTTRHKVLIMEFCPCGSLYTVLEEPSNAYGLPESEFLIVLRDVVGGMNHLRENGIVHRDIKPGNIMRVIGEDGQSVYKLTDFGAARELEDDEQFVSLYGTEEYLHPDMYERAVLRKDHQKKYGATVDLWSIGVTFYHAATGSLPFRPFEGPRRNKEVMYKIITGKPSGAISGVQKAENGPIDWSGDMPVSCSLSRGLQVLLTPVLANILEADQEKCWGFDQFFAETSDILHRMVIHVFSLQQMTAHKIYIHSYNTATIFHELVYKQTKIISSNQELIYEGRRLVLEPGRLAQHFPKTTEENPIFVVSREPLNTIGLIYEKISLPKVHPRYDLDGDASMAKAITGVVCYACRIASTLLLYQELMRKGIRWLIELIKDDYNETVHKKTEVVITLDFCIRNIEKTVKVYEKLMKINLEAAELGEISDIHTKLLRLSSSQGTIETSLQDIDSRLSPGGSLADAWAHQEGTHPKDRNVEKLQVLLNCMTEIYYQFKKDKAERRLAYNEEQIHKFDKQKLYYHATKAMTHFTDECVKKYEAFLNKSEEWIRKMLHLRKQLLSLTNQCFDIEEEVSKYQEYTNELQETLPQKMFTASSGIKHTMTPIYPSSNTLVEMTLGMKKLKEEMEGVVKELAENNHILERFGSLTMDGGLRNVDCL
Method in brief: as §1

[1] = read-out: % Enzyme Activity (relative to DMSO controls) Run 1
[2] = read-out: % Enzyme Activity (relative to DMSO controls) Run 2

T7 sequence (P11309 whole entry): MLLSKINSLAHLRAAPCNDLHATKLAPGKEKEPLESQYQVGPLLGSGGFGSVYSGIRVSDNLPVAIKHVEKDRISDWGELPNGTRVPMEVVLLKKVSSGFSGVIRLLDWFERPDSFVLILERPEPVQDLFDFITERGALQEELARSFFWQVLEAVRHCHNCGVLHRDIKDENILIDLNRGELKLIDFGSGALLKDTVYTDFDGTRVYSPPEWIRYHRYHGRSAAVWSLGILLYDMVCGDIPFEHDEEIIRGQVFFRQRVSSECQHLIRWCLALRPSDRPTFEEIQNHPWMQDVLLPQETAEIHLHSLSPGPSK
T3 sequence (Q92918 whole entry): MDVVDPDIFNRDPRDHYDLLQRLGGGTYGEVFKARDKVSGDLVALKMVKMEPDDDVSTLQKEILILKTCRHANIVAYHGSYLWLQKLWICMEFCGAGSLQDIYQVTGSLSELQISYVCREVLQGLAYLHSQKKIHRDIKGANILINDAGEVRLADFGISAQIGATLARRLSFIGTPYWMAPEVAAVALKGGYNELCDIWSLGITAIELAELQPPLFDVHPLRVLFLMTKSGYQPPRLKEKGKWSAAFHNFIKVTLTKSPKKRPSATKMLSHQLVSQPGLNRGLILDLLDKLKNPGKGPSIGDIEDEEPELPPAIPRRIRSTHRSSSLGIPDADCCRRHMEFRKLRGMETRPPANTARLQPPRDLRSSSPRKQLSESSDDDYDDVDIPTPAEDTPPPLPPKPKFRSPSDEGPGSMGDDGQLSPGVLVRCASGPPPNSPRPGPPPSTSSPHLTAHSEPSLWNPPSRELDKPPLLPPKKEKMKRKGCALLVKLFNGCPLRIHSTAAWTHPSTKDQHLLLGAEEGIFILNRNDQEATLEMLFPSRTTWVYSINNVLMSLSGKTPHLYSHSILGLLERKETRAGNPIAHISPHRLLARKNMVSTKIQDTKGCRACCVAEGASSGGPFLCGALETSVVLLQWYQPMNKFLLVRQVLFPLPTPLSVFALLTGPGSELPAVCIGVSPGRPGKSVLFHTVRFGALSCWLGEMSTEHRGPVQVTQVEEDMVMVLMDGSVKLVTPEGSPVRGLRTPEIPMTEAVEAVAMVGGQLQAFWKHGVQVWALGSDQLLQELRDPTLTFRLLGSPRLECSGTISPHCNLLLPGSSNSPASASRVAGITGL
T4 sequence (P23458 whole entry): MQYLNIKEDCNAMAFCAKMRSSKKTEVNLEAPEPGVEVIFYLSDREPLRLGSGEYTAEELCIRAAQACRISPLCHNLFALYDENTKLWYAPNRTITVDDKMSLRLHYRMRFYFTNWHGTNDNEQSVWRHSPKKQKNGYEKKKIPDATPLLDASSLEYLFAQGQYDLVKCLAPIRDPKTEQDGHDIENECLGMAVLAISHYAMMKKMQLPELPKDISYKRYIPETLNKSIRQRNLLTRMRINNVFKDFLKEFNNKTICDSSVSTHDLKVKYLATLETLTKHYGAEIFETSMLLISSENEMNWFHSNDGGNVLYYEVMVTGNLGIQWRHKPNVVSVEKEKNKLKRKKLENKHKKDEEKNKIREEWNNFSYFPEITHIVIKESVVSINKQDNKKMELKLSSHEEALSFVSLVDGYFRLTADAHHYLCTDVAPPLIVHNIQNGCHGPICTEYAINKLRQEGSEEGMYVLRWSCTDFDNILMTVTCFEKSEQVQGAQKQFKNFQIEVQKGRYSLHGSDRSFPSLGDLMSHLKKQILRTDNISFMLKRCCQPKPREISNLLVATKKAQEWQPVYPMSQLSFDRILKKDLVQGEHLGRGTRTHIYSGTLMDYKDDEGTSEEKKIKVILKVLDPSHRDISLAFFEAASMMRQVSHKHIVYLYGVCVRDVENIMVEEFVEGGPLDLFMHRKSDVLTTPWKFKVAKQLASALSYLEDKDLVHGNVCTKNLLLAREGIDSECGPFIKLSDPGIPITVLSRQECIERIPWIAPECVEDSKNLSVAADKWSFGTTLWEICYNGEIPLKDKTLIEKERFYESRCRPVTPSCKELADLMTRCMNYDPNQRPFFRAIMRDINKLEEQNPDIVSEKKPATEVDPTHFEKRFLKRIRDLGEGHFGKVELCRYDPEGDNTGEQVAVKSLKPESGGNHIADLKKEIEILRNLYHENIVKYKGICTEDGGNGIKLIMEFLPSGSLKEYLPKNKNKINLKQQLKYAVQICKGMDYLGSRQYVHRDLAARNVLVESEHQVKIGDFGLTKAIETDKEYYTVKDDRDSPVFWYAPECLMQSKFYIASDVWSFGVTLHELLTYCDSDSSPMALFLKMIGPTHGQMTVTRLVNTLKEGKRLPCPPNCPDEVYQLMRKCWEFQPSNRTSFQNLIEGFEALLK
T8 sequence (Q9H3Y6 whole entry): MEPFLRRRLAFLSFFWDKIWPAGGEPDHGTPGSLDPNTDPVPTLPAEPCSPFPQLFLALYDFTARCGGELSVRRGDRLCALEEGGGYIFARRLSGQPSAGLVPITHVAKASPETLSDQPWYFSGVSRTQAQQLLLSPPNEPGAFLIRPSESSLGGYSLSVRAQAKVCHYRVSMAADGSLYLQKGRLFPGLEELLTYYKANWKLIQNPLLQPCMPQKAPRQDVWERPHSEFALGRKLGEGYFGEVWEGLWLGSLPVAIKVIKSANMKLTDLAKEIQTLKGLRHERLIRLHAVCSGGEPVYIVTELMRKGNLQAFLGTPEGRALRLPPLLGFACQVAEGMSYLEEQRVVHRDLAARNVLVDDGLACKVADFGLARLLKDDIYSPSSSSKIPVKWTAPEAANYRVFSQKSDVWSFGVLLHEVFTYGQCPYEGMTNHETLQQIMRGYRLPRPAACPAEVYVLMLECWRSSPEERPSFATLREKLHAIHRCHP
T6 sequence (Q8TDX7 whole entry): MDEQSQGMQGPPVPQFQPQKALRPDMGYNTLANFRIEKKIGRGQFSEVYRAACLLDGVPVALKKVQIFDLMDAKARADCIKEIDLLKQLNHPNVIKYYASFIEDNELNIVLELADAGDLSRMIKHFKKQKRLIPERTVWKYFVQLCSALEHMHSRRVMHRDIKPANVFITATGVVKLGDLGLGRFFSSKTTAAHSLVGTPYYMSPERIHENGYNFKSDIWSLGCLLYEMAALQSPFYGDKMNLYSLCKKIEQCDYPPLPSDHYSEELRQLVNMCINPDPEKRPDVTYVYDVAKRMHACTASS
T1 sequence (Q00526 whole entry): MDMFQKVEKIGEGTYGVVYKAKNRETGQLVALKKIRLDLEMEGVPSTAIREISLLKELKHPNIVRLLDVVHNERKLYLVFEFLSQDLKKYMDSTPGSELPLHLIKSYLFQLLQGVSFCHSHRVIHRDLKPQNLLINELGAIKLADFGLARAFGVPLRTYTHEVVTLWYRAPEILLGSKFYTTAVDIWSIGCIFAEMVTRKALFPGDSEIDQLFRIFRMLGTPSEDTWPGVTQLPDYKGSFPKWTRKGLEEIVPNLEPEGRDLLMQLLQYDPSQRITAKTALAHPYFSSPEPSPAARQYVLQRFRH
T1 sequence (P24864 whole entry partner): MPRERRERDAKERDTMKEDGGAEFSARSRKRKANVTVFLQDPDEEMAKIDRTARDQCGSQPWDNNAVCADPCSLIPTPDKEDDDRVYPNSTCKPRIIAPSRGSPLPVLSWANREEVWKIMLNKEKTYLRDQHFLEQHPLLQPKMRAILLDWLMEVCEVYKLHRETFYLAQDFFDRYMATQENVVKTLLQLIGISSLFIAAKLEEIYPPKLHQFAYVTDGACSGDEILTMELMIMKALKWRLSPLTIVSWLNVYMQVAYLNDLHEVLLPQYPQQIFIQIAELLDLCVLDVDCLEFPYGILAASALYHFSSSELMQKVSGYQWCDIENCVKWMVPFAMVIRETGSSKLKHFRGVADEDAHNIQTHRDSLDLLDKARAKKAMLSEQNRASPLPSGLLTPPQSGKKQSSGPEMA
T5 sequence (P45983 whole entry): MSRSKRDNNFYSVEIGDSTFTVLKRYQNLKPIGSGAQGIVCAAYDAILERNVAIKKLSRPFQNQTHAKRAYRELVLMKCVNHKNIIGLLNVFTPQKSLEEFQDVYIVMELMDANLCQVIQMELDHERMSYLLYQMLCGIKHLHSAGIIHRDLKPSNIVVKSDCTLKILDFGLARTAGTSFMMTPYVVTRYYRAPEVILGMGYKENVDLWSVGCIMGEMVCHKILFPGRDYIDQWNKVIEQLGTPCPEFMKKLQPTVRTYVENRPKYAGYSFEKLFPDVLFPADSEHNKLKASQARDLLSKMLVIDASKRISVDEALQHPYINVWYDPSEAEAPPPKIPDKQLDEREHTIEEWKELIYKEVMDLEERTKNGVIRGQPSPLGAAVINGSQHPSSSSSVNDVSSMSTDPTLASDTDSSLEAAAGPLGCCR

C=CC(=O)Nc1cccc(Nc2nc(Nc3ccc(OCCOC)c(F)c3)ncc2F)c1 [Compound 2]
inhibition at 3 µM (CDK3/cyclin E): 22.4% | remaining activity at 3 µM (CDK3/cyclin E; [1]): 78.2% | remaining activity at 3 µM (CDK3/cyclin E; [2]): 77% | inhibition at 3 µM (DRAK1/STK17A): 18.2% | remaining activity at 3 µM (DRAK1/STK17A; [1]): 82.9% | remaining activity at 3 µM (DRAK1/STK17A; [2]): 80.6% | inhibition at 3 µM (HPK1/MAP4K1): 12.9% | remaining activity at 3 µM (HPK1/MAP4K1; [1]): 85.8% | remaining activity at 3 µM (HPK1/MAP4K1; [2]): 88.4% | inhibition at 3 µM (JAK1): 40.6% | remaining activity at 3 µM (JAK1; [1]): 59.7% | remaining activity at 3 µM (JAK1; [2]): 59% | inhibition at 3 µM (JNK1): 12.1% | remaining activity at 3 µM (JNK1; [1]): 88.1% | remaining activity at 3 µM (JNK1; [2]): 87.7% | inhibition at 3 µM (NEK7): 0.68% | remaining activity at 3 µM (NEK7; [1]): 98.3% | remaining activity at 3 µM (NEK7; [2]): 100% | inhibition at 3 µM (PIM1): -3.82% | remaining activity at 3 µM (PIM1; [1]): 104% | remaining activity at 3 µM (PIM1; [2]): 104% | inhibition at 3 µM (SRMS): -23.1% | remaining activity at 3 µM (SRMS; [1]): 124% | remaining activity at 3 µM (SRMS; [2]): 123% | inhibition at 3 µM (TBK1): 41.3% | remaining activity at 3 µM (TBK1; [1]): 58.1% | remaining activity at 3 µM (TBK1; [2]): 59.2%
